Columns and labels:
SAPK2/p38 = SAPK2/p38 (Homo sapiens, UniProt Q16539); details: CK1 and ALK5 inhibitor versus SAPK2/p38; cited from earlier work
adenylate cyclase 1 = adenylate cyclase 1 (Homo sapiens, UniProt Q08828); details: cited from earlier work
[1] = system: cardiomyocytes generated from mouse tail tip fibroblasts (TTFs); experiment: β-adrenergic and muscarinic stimulation of induced cardiomyocytes (beating, Ca2+ transients); format: cell-based; details: applied locally
Experimental: Myocytes were loaded with 5 μM Fluo-4 AM (Molecular Probes, Invitrogen Corp, Carlsbad, Calif.), a Ca^++ indicator dye for 20 minutes at room temperature followed by 20 minutes in dye-free extracellular solution to allow for Fluo-4 de-esterification prior to commencing recordings. Ca^++ transients were recorded via a standard filter set (#49011 ET, Chroma Technology Corp., Bellows Falls, Vt.) and a photomultiplier-based recording system (lonOptix PMT400, Milton, Mass.). Fluorescence was recorded simultaneously from an entire myocyte cluster. Between sampling periods, excitation light was blocked by a shutter (CS35; Vincent Associates, Rochester, N.Y.) and background fluorescence was recorded after removing the cell(s) from the field of view at the end. Where applicable, 1 μM isoproterenol (Iso) or 25 μM carbachol (Cch) were applied locally (to the cell cluster of interest) using a perfusion pencil (AutoMate Scientific, Berkeley, Calif.).
Intact […] nervous system responses to hormones and transmitters are one of the most critical characteristics of normal cardiomyocytes. […] After washing out carbachol, cells resumed contracting and the Ca^2+ transients immediately returned to normal (FIG. 4H).

Sequence of adenylate cyclase 1 (Q08828 whole entry): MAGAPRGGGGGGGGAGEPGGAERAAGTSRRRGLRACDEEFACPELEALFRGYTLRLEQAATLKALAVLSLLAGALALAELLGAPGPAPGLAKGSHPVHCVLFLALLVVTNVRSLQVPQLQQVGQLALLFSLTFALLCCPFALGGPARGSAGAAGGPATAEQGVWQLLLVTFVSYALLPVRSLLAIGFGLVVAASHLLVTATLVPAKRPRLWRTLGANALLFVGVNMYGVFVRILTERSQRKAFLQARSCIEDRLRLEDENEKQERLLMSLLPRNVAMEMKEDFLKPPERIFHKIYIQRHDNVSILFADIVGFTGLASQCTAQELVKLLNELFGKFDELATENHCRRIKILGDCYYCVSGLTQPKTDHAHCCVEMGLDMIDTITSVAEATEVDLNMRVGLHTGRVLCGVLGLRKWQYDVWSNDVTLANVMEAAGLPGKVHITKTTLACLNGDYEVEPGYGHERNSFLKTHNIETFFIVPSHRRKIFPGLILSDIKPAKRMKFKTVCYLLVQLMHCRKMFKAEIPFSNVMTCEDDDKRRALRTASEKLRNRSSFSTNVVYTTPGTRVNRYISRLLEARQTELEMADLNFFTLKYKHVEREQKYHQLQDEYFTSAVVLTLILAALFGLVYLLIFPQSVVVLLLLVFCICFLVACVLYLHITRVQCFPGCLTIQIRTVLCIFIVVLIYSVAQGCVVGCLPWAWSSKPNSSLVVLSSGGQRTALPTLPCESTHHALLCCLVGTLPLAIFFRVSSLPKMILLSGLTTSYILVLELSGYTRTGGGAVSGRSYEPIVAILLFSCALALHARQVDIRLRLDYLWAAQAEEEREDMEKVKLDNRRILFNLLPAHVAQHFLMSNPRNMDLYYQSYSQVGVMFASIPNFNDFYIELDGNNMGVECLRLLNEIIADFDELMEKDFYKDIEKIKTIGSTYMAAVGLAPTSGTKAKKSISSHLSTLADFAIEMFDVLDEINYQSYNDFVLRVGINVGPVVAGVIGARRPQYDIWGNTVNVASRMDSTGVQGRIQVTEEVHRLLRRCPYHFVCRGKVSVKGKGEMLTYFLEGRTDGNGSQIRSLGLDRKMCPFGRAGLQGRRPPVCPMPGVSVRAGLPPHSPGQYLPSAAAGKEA
Sequence of SAPK2/p38 (Q16539 whole entry): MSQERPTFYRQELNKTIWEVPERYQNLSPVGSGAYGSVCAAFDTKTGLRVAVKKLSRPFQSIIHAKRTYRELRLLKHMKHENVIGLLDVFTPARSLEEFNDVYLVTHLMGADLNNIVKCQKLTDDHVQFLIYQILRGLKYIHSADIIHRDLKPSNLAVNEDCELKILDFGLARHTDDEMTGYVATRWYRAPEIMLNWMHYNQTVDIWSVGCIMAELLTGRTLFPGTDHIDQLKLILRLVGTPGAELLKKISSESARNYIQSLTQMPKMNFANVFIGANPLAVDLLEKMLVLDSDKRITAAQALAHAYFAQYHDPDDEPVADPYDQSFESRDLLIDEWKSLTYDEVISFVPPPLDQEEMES

Structure (SMILES): NC(=O)c1ccc(-c2nc(-c3ccc4c(c3)OCCO4)c(-c3ccccn3)[nH]2)cc1 [D 4476, 4-[4-(2,3-Dihydro-1,4-benzodioxin-6-yl)-5-(2-pyridinyl)-1H-imidazol-2-yl]benzamide]
- selectivity over SAPK2/p38 (SAPK2/p38): greater than 20 fold

Structure (SMILES): C=C[C@@]1(C)CC(=O)[C@]2(O)[C@@]3(C)[C@@H](O)CCC(C)(C)[C@@H]3[C@H](O)[C@H](OC(C)=O)[C@@]2(C)O1 [Forskolin]
- IC50 (adenylate cyclase 1): 40 to 150 nM

Structure (SMILES): C[N+](C)(C)CCOC(N)=O [carbachol]
- frequency of cell contracting and spontaneous calcium transients ([1]; 25 μM, reversible on wash-out): opposite effect

Structure (SMILES): CC(C)NCC(O)c1ccc(O)c(O)c1 (stereo not shown) [isoproterenol]
- frequency of cell contracting and spontaneous calcium transients ([1]; 1 μM): significantly increased

Reference: patent US10144915B2, “Reprogramming fibroblasts into cardiomyocytes” (The J. David Gladstone Institutes, a testamentary trust …, priority 2013, dated 2018)
